Measurements: ChEMBL document CHEMBL3259734, “Cepharanthine inhibited HIV-1 cell-cell transmission and cell-free infection via modification of cell membrane fluidity” (Bioorg Med Chem Lett, 2014)
≈ marks a conversion by molar mass, not a printed value. Calls of active or inactive are those of the source. The rule behind the calls is not given here.

What was measured:
[1] = Cytotoxicity against human MOLT4 cells assessed as cell growth inhibition after 24 hrs by MTT assay; format: cell-based; details: MOLT-4 cells
[2] = system: Human immunodeficiency virus 1; experiment: Antiviral activity against HIV1 NL4.3 infected in human PHA-blast cells from PBMC assessed as reduction in viral production measured as p24 protein expression cells pretreated for 1 hr with compound at 1 to 5 ug/ml and washed 1 hr after infection measured at day 4 post infection by flow cytometry; format: functional, organism-based
[3] = system: HEK-293T; experiment: Suppression of syncytial formation in HIV1 envelope Env-GFP expressing HEK293T cells co-cultured with 1 hr at up to 5 ug/ml compound treated human TZM-bl cells by fluorescent microscopy; format: cell-based; details: Human immunodeficiency virus 1
[4] = system: MOLT-4; experiment: Cytotoxicity against human MOLT4 cells assessed as cell growth inhibition up to 20 ug/ml washout after 1 hr measured at 24 hrs by MTT assay; format: cell-based; details: molt-4, 1 h
[5] = Cytotoxicity against human TZM-bl cells assessed as cell growth inhibition at 1 to 10 ug/ml washout after 1 hr measured at 24 hrs by MTT assay; format: cell-based
[6] = system: MOLT-4; experiment: Reduction in membrane fluidity in human MOLT4 cells assessed as fluorescence polarization of DPH by spectrophotofluorometry; format: functional, cell-based
[7] = system: MOLT-4; experiment: Inhibition of HIV1 envelope Env-dependent cell fusion in JurkatHXBc2 cells expressing Env co-cultured with 1 hr at compound treated PKH67-labelled human MOLT4 cells at 1:1 ratio for 24 hrs by flow cytometry; format: cell-based; details: Human immunodeficiency virus 1
[8] = system: Human immunodeficiency virus 1; experiment: Antiviral activity against HIV1 NL4.3 infected in human PHA-blast cells from PBMC assessed as reduction in viral production measured as p24 protein expression cells pretreated for 1 hr with compound at 1 to 5 ug/ml and washed 1 hr after infection measured at day 4 post infection by ELISA; format: functional, organism-based
[9] = system: MOLT-4; experiment: Cytotoxicity against human MOLT4 cells assessed as cell growth inhibition at 1 to 10 ug/ml washout after 1 hr measured at 24 hrs by MTT assay; format: cell-based
[10] = system: MOLT-4; experiment: Inhibition of HIV1 envelope Env-dependent cell fusion in JurkatHXBc2 cells expressing Env co-cultured with 1 hr at compound treated PKH67-labelled human MOLT4 cells at 1:1 ratio for 24 hrs by fluorescent microscopy; format: cell-based; details: Human immunodeficiency virus 1
[11] = Cytotoxicity against human PHA-blast cells from CBMC assessed as cell growth inhibition at 1 to 10 ug/ml washout after 1 hr measured at 24 hrs by MTT assay; format: cell-based
[12] = system: PBMC; experiment: Cytotoxicity against human PHA-blast cells from PBMC assessed as cell growth inhibition at 1 to 10 ug/ml washout after 1 hr measured at 24 hrs by MTT assay; format: cell-based

COc1ccc2cc1Oc1ccc(cc1)C[C@H]1c3c(cc4c(c3Oc3cc5c(cc3OC)CCN(C)[C@@H]5C2)OCO4)CCN1C [CEPHARANTHINE]
CC50 at 24 h [1]: 10 mg/L (≈ 16.5 µM) | inhibition [2]: Active | Activity [3]: Active | Activity [4]: Non-toxic | Activity [5]: Non-toxic | Activity [6]: Dose-dependent effect | inhibition [7]: Dose-dependent effect | inhibition [8]: Active | Activity [9]: Non-toxic | inhibition [10]: Dose-dependent effect | Activity [11]: Non-toxic | Activity [12]: Non-toxic
